# Test results reported in the supplement of paper PMC10307832.
# Compound: C[C@@H](Oc1cc(-c2cnn(C3CCNCC3)c2)cnc1N)c1c(Cl)ccc(F)c1Cl [Crizotinib] + CC(C)C[C@H](NC(=O)[C@H](Cc1ccccc1)NC(=O)c1cnccn1)B(O)O [Bortezomib] (partner 0.002 µM)
# Assay: relative viability (nuclei count vs DMSO), 5 days (fraction); higher = more cells survive
# Settings: first compound 1 µM
# Method in brief: (§1)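 Relative viability divides the nuclei count in treated wells by that in vehicle wells. Lung cancer cell lines were seeded in 1536-well plates, dosed by pin tool the next day, and fixed and stained after 5 days in one step with final 0.05% Triton X-100, 1% formaldehyde and 1 ug/ml Hoechst. Dosing was a single drug or a fixed anchor-drug dose plus five library-drug doses (not always all listed) in √10 steps, and values are medians of duplicate plates imaged at 4×.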
row,Cell Line,relative viability
1,NCI-H460,1.1
2,NCI-H520,0.331
3,NCI-H596,0.947
4,NCI-H647,0.943
5,NCI-H650,0.671
6,NCI-H661,0.817

# Compound: CC(C)C[C@H](NC(=O)[C@H](CCc1ccccc1)NC(=O)CN1CCOCC1)C(=O)N[C@@H](Cc1ccccc1)C(=O)N[C@@H](CC(C)C)C(=O)[C@@]1(C)CO1 [Carfilzomib] + O=C(c1cc(Cc2n[nH]c(=O)c3ccccc23)ccc1F)N1CCN(C(=O)C2CC2)CC1 [Olaparib] (partner 8 µM)
# Assay: as above
# Settings: first compound 0.001 µM
# Method in brief: as §1
row,Cell Line,relative viability
1,LC-2-ad,0.673
2,LCLC-97TM1,0.367
3,LCLC-103H,0.733
4,LOU-NH91,0.923
5,LU99A,0.287
6,LXF-289,1.09
7,NCI-H23,0.365
8,NCI-H322M,0.748
9,NCI-H441,0.749
10,NCI-H460,0.41
11,NCI-H520,0.307
12,NCI-H596,0.691
13,NCI-H647,0.641
14,NCI-H650,0.363
15,NCI-H661,0.731

# Same assay, conditions: first compound 0.003162 µM
row,Cell Line,relative viability
1,LC-2-ad,0.715
2,LCLC-97TM1,0.527
3,LCLC-103H,0.781
4,LOU-NH91,0.992
5,LU99A,0.233
6,LXF-289,1.19
7,NCI-H23,0.391
8,NCI-H322M,0.681
9,NCI-H441,0.542
10,NCI-H460,0.444
11,NCI-H520,0.297
12,NCI-H596,0.704
13,NCI-H647,0.644
14,NCI-H650,0.382
15,NCI-H661,0.806

# Same assay, conditions: first compound 0.01 µM
row,Cell Line,relative viability
1,LC-2-ad,0.667
2,LCLC-97TM1,0.318
3,LCLC-103H,0.793
4,LOU-NH91,0.871
5,LU99A,0.276
6,LXF-289,1.07
7,NCI-H23,0.287
8,NCI-H322M,0.771
9,NCI-H441,0.288
10,NCI-H460,0.485
11,NCI-H520,0.203
12,NCI-H596,0.727
13,NCI-H647,0.0662
14,NCI-H650,0.414
15,NCI-H661,0.725

# Same assay, conditions: first compound 0.03162 µM
row,Cell Line,relative viability
1,LC-2-ad,0.637
2,LCLC-97TM1,0.0498
3,LCLC-103H,0.428
4,LOU-NH91,0.34
5,LU99A,0.168
6,LXF-289,0.0687
7,NCI-H23,0.0921
8,NCI-H322M,0.798
9,NCI-H441,0.146
10,NCI-H460,0.443
11,NCI-H520,0.161
12,NCI-H596,0.552
13,NCI-H647,0.0256
14,NCI-H650,0.247
15,NCI-H661,0.684

# Same assay, conditions: first compound 0.1 µM
row,Cell Line,relative viability
1,LC-2-ad,0.237
2,LCLC-97TM1,0.0493
3,LCLC-103H,0.354
4,LOU-NH91,0.287
5,LU99A,0.137
6,LXF-289,0.0894
7,NCI-H23,0.101
8,NCI-H322M,0.439
9,NCI-H441,0.15
10,NCI-H460,0.0304
11,NCI-H520,0.15
12,NCI-H596,0.186
13,NCI-H647,0.023
14,NCI-H650,0.112
15,NCI-H661,0.312

# Compound: O=C(c1cc(Cc2n[nH]c(=O)c3ccccc23)ccc1F)N1CCN(C(=O)C2CC2)CC1 [Olaparib] + C[C@]1(O)C[C@@H](c2nc(-c3ccc4ccc(-c5ccccc5)nc4c3)c3c(N)nccn32)C1 [Linsitinib] (partner 1 µM)
# Assay: as above
# Settings: first compound 0.08 µM
# Method in brief: as §1
row,Cell Line,relative viability
1,LC-2-ad,0.81
2,LCLC-97TM1,0.166
3,LCLC-103H,1.13
4,LOU-NH91,1.19
5,LU99A,0.587
6,LXF-289,1.05
7,NCI-H23,0.572
8,NCI-H322M,0.819
9,NCI-H441,0.658
10,NCI-H460,0.86
11,NCI-H520,1.17
12,NCI-H596,1.04
13,NCI-H647,1.4
14,NCI-H650,0.806
15,NCI-H661,0.773

# Same assay, conditions: first compound 0.253 µM
row,Cell Line,relative viability
1,LC-2-ad,0.754
2,LCLC-97TM1,0.178
3,LCLC-103H,1.07
4,LOU-NH91,0.94
5,LU99A,0.515
6,LXF-289,0.899
7,NCI-H23,0.572
8,NCI-H322M,0.879
9,NCI-H441,0.528
10,NCI-H460,0.614
11,NCI-H520,0.825
12,NCI-H596,0.856
13,NCI-H647,1.05
14,NCI-H650,0.735
15,NCI-H661,0.593

# Same assay, conditions: first compound 2.53 µM
row,Cell Line,relative viability
1,LC-2-ad,0.787
2,LCLC-97TM1,0.162
3,LCLC-103H,1.04
4,LOU-NH91,0.973
5,LU99A,0.414
6,LXF-289,1.02
7,NCI-H23,0.45
8,NCI-H322M,0.979
9,NCI-H441,0.544
10,NCI-H460,0.316
11,NCI-H520,0.872
12,NCI-H596,0.923
13,NCI-H647,0.919
14,NCI-H650,0.776
15,NCI-H661,0.518

# Same assay, conditions: first compound 8 µM
row,Cell Line,relative viability
1,LC-2-ad,0.633
2,LCLC-97TM1,0.18
3,LCLC-103H,0.873
4,LOU-NH91,0.885
5,LU99A,0.333
6,LXF-289,0.968
7,NCI-H23,0.299
8,NCI-H322M,0.84
9,NCI-H441,0.485
10,NCI-H460,0.191
11,NCI-H520,0.663
12,NCI-H596,0.744
13,NCI-H647,0.779
14,NCI-H650,0.724
15,NCI-H661,0.573
